Results published in patent publication US5539119A, “Indole derivatives” (priority 1990, dated 1996).
Read-outs that look alike come from different tables or passages of the source.

Key:
δ opioid receptor [1] = biological target: T1, δ opioid receptor (Cavia porcellus, UniProt A0A286XTF2); assay: Bonding (binding) assay, guinea pig brain homogenate, DPDPE (hot) / DADLE (cold)
T1 construct: the homogenate of the brain of a guinea pig; from tissue; host or cells: guinea pig brain homogenate
Procedure: (§1) In the test for bonding, the homogenate of the brain of a guinea pig was diluted with Tris buffer in a ratio calculated to give to the produced solution a protein content of 0.7 mg per prot/tube was used as incorporated in the reaction solution. With regard to ligands for binding assay, 3H-DAGO (μ), DPDPE (δ), and EKC (κ) were used for hot samples and naloxone (μ), DADLE (δ), and naloxone (κ) for cold samples.

δ opioid receptor [2] = assay: as above; conditions: μ/δ
Procedure: as §1

[3] = system: Guinea Pig Ileal Longitudinal Muscle; assay: GPI, shift of the compound's effect by naloxone or nor-BNI
Procedure: (§2) The test of the compounds of this invention for agonist and antagonist activities was carried out in according to the method proposed by Takemori et al. (Takemori, A, E. et al.: Eur. J. Pharmacal., 1982, 85, 163) using Guinea Pig Ileal Longitudinal Muscle Mouse Vas Deferens (MVD).

δ-receptor = biological target: T2, δ-receptor (Mus musculus, UniProt P32300); assay: Antagonism to DPDPE in Mouse Vas Deferens (MVD)
T2 construct: from tissue; host or cells: mouse vas deferens

κ opioid receptor = biological target: T3, κ opioid receptor (Cavia porcellus, UniProt P41144); assay: Bonding (binding) assay, guinea pig brain homogenate, EKC (hot) / naloxone (cold)
T3 construct: the homogenate of the brain of a guinea pig; from tissue; host or cells: guinea pig brain homogenate
Procedure: as §1

μ opioid receptor = biological target: T4, μ opioid receptor (Cavia porcellus, UniProt A0ACM8Q262); assay: Bonding (binding) assay, guinea pig brain homogenate, 3H-DAGO (hot) / naloxone (cold); conditions: for Ki: guinea pig brain homogenate; for Ki ratio κ/μ: selectivity ratio
T4 construct: 3H-DAGO (DAMGO) radioligand, cold naloxone
Procedure: as §1

Mouse Vas Deferens (MVD) = assay: Agonist activity in Mouse Vas Deferens (MVD); conditions: read-out: MVD IC50
Procedure: as §2

[4] = system: Guinea Pig Ileal Longitudinal Muscle; assay: Agonist activity in Guinea Pig Ileal Longitudinal Muscle (GPI); conditions: for IC50: guinea pig ileum
Procedure: as §2

mouse T cells = assay: Inhibiting proliferation of mouse T cells by Con-A stimulation ([3H]thymidine uptake, spleen cells); assay type: cell-based; conditions: for IC50: ConA-stimulated mouse T cells
Procedure: Now, the immunosuppressive activity of the compound 19 which is representative of the compounds of the present invention will be shown. Activity in inhibiting proliferation of mouse T cells by Con-A stimulation
A monocellular suspension was prepared by sterilely removing the spleen from a mouse and passing the spleen through a mesh. This suspension was adjusted to a concentration of 5×10^6 cells/ml and dispensed by the unit of 100 μl in all the individual wells of a 96-well plate. […] Eight hours before completion of the incubation, [^3 H]thymidine was added to the contents of the wells in a fixed ratio of 2 μCi/10 μl/well. Eight hours after this addition, the cells in the wells were collected on filter papers with the aid of a cell harvester. The cells on the filter papers were dried, then combined with a toluene type scintillator, and counted for the radioactivity of the [^3 H] thymidine occluded in the cells by means of a scintillation counter.
The ratio of suppression of T cell proliferation was calculated in accordance with the following formula:
Rate of suppression=(Radioactivity in the absence of compound-Radioactivityafter addition of compound)/(Radioactivity in the absence of compound-Radioactivity in the absence of ConA)

T4 sequence (A0ACM8Q262 1-400): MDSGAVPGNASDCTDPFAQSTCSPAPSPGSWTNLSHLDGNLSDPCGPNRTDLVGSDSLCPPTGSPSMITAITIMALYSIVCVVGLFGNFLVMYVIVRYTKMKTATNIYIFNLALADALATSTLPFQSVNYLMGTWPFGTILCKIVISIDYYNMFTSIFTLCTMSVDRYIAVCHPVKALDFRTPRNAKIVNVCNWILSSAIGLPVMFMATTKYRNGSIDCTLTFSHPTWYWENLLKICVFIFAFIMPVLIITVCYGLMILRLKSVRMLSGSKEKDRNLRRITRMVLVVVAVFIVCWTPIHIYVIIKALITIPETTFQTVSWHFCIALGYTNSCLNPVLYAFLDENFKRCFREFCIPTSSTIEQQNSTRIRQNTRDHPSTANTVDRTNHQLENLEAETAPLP
T3 sequence (P41144 whole entry): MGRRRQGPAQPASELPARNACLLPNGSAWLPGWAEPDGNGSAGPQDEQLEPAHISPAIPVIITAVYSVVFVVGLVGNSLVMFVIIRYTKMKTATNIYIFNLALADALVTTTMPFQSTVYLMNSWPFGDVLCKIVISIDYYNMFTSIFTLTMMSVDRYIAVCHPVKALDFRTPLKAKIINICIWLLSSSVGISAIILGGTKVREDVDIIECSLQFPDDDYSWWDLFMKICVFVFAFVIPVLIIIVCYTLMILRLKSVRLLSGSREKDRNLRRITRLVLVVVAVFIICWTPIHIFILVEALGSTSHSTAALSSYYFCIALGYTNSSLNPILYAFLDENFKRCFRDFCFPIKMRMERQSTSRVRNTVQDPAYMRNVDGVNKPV
T2 sequence (P32300 whole entry): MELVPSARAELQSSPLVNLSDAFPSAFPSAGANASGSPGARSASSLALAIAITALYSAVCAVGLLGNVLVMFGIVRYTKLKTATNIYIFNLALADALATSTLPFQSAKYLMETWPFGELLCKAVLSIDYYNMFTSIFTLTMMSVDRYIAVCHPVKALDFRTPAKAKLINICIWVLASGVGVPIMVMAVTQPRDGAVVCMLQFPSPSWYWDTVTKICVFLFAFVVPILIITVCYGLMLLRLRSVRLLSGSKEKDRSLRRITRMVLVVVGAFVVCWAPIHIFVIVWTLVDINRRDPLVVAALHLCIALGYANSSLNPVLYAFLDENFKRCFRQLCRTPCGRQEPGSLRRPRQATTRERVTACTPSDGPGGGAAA
T1 sequence (A0A286XTF2 1-366): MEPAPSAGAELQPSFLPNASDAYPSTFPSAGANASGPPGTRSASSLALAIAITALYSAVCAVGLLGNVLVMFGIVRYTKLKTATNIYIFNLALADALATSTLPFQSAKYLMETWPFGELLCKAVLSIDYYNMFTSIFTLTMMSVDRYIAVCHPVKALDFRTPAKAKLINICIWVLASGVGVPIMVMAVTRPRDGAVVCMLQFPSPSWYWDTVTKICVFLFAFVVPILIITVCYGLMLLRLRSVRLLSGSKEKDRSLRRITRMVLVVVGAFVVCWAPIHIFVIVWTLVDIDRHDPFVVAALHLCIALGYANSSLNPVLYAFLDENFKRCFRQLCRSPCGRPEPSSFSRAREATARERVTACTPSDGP

`CN1CC[C@]2(c3cccc(O)c3)Cc3[nH]c4c(F)cccc4c3C[C@H]2C1` (relative stereo) [Compound 8, 2-Methyl-4aα-(3-hydroxyphenyl)-7-fluoro-1,2,3,4,4a,5,11,11aβ-octahydro-6H-indolo[2,3-g]isoquinoline] was tested, and the Ki (δ opioid receptor [1]) was 59 nM, the “Ki ratio μ/δ” value (δ opioid receptor [2]) was > 114 and the “Ki ratio μ/δ” value (δ opioid receptor [2]; selectivity ratio) was 77.8. For the same compound, the “GPI naloxone DR” value [3] was 0.80, the “GPI nor-BN1 DR” value [3] was 1.04 and the Kb (δ-receptor; MVD Antagonism to DPDPE at 100 nM, pA2, at 100 nM) was 70.8 nM. The “MVD Antagonism to DPDPE at 100 nM, DR” value (δ-receptor; at 100 nM) was 15.0, the Ki (κ opioid receptor) was > 6750 nM and the Ki (μ opioid receptor) was 4590 nM. For the same compound, the “Ki ratio κ/μ” value (μ opioid receptor) was > 1.47, the IC50 (Mouse Vas Deferens (MVD)) was 25900 nM and the IC50 [4] was 23000 nM.
With `CN1CC[C@]2(c3cccc(O)c3)Cc3c(c4ccccc4n3C)C[C@H]2C1` (relative stereo) [Compound 12, 2-Methyl-4aα-(3-hydroxyphenyl)-1,2,3,4,4a,5,11,11aβ-octahydro-6-methyl-indolo[2,3-g]isoquinoline] the Ki (δ opioid receptor [1]; guinea pig brain homogenate, read-out: Bonding assay Ki value δ) was 120 nM, the “Ki ratio μ/δ” value (δ opioid receptor [2]) was 3.17 and the “Ki ratio μ/δ” value (δ opioid receptor [2]; selectivity ratio) was 10.3. The “GPI naloxone DR” value [3] was 0.61, the “GPI nor-BN1 DR” value [3] was 0.70 and the Kb (δ-receptor; at 100 nM) was 138 nM. For the same compound, the “MVD Antagonism to DPDPE at 100 nM, DR” value (δ-receptor; at 100 nM) was 8.27, the Ki (κ opioid receptor) was 380 nM and the Ki (μ opioid receptor) was 1230 nM. The “Ki ratio κ/μ” value (μ opioid receptor) was 0.31, the IC50 (Mouse Vas Deferens (MVD)) was 25000 nM and the IC50 [4] was 38700 nM.
With `Oc1cccc([C@]23CCN(CC4CC4)C[C@@H]2Cc2c([nH]c4ccccc24)C3)c1` (relative stereo) [Compound 19, 2-Cyclopropylmethyl-4aα-(3-hydroxyphenyl)-1,2,3,4,4a,5,11,11β-octahydro-6H-indolo[2,3-g]isoquinoline] the Ki (δ opioid receptor [1]) was 3.5 nM, the “GPI naloxone DR” value [3] was 0.93 and the “GPI nor-BN1 DR” value [3] was 0.95. For the same compound, the “MVD Antagonism to DPDPE, DR” value (δ-receptor; (20 nM)) was 5.17, the “MVD Antagonism to DPDPE, DR” value (δ-receptor; (50 nM)) was 9.62 and the Kb (δ-receptor; MVD Antagonism to DPDPE, pA2, (20 nM)) was 5.01 nM. For the same compound, the Kb (δ-receptor; MVD Antagonism to DPDPE, pA2, (50 nM)) was 6.03 nM, the “effect on inhibition of contraction by DPDPE, in words” value (δ-receptor; Mouse Vas Deferens) was “selectively attenuate the inhibition of contraction by DPDPE” and the Ki (κ opioid receptor) was 951 nM. For the same compound, the Ki (μ opioid receptor) was 716 nM, the “activity in immunosuppression / inhibiting T cell proliferation, in words” value (mouse T cells) was “clearly strong activity in immunosuppression” and the inhibition at 0.1 µg/mL (mouse T cells; Mus musculus, T-cell, 48 h, 0.1 μg/ml, n = 3, read-out: Ratio of suppression of T cell proliferation) was 6%. The inhibition at 0.5 µg/mL (mouse T cells; Mus musculus, T-cell, 48 h, 0.5 μg/ml, n = 3, read-out: Ratio of suppression of T cell proliferation) was 0%, the inhibition at 0.75 µg/mL (mouse T cells; Mus musculus, T-cell, 48 h, 0.75 μg/ml, n = 3, read-out: Ratio of suppression of T cell proliferation) was 18% and the inhibition at 1 µg/mL (mouse T cells; Mus musculus, T-cell, 48 h, 1.0 μg/ml, n = 3, read-out: Ratio of suppression of T cell proliferation) was 1%. The inhibition at 2.5 µg/mL (mouse T cells; Mus musculus, T-cell, 48 h, 2.5 μg/ml, n = 3, read-out: Ratio of suppression of T cell proliferation) was 33%, the inhibition at 5 µg/mL (mouse T cells; Mus musculus, T-cell, 48 h, 5.0 μg/ml, n = 3, read-out: Ratio of suppression of T cell proliferation) was 94% and the inhibition at 7.5 µg/mL (mouse T cells; Mus musculus, T-cell, 48 h, 7.5 μg/ml, n = 3, read-out: Ratio of suppression of T cell proliferation) was 100%. The inhibition at 10 µg/mL (mouse T cells; Mus musculus, T-cell, 48 h, 10.0 μg/ml, n = 3, read-out: Ratio of suppression of T cell proliferation) was 100%, the inhibition at 12.5 µg/mL (mouse T cells; Mus musculus, T-cell, 48 h, 12.5 μg/ml, n = 3, read-out: Ratio of suppression of T cell proliferation) was 100% and the inhibition at 15 µg/mL (mouse T cells; Mus musculus, T-cell, 48 h, 15.0 μg/ml, n = 3, read-out: Ratio of suppression of T cell proliferation) was 100%. It also gave an inhibition at 17.5 µg/mL (mouse T cells; Mus musculus, T-cell, 48 h, 17.5 μg/ml, n = 3, read-out: Ratio of suppression of T cell proliferation) of 100%, an inhibition at 20 µg/mL (mouse T cells; Mus musculus, T-cell, 48 h, 20.0 μg/ml, n = 3, read-out: Ratio of suppression of T cell proliferation) of 100% and an IC50 (mouse T cells; Mus musculus, T-cell, read-out: IC50, activity in inhibiting T cell hyperplasia (Table 3)) of 2.7 µg/mL. The IC50 (mouse T cells; Mus musculus, T-cell, read-out: IC50 value, immunosuppression (text to Table 2)) was 3 µg/mL, the IC50 (Mouse Vas Deferens (MVD)) was 28900 nM and the “effect on contraction of guinea pig ileum, in words” value [4] was “avoids affecting the inhibition of contraction of the ileum of a guinea pig”. For the same compound, the IC50 [4] was 34600 nM.
